Paper PMC12418703, “Avenanthramides and avenacosides as biomarkers of oat intake: a pharmacokinetic study of solid and liquid oat consumption under single and repeated dose conditions” (Nutrition Journal, 2025)

Experiments:
[1] = PK-model estimation of oat product dose and dosing interval needed to reach plasma concentration above LLOQ; set-up: species or system humans; conditions: for estimated volume of liquid oats resulting in plasma concentration above LLOQ: consumption interval every 4 h; for estimated intake volume of liquid oats needed for plasma concentration above LLOQ: intake every 8 h
Description: A compartmental model with two absorption compartments and a plasma compartment with linear elimination for each molecule separately described better the experimental data from the single dose intake compared to a compartmental model of a single absorption compartment (Figure S3). Parameter estimation was performed using the non-linear mixed-effects approach with lognormal inter-individual variability in all three model parameters: distribution volume over bioavailability ( [drawing 1] ), absorption rate ( [drawing 2] ), elimination rate ( [drawing 3] ), (R package nlmixr2 [34]). The results were reported as population means with coefficient of variation (Table S1). The area under the curve (AUC) and Cmax were normalized (AUCnorm) for the nmol intake of each molecule. Statistical analysis was conducted with R software environment. The compounds were compared for their PK parameters within the same product and between products using repeated ANOVA approach (lme4 package) and then by pairwise comparison adjusted for post hoc Tukey-Kramer honestly significant difference. All statistical analyses were performed on log- transformed data. Based on the PK models built on the single-dose data, a linear relationship ( [drawing 4] was derived between dose and dosing interval (intake frequency, [drawing 5] ) to estimate the AVA intake needed to reach an average concentration (at steady state) that is measurable above lower limit of quantification (LLOQ). To translate the intake of AVAs from the linear relationship (Dose) to corresponding oat flake product intake, we estimated the content of AVAs in different products using reported data from the literature and assigned values, where possible. For the flakes, information in literature was available for AVA 2c, AVA 2p and AVA 2 f. Therefore, an average value for these compounds per food product was assigned while for the oat drink and for the less known AVAs; AVA 2pd and AVA 2fd, an average value based on the measured products in our laboratory was used (Table S2). In the second phase of the intervention, following a repeated dosing period of 4 days, plasma concentrations were determined over a dosing interval recorded by the individuals and were compared to their corresponding predicted values in blood. This comparison allowed for an assessment of the model’s accuracy in predicting AVAs’ behavior under repeated dosing conditions. Only experimental data above the limit of quantification were used for the comparison. Further, the data were tested for outliers with the interquartile range (IQR) approach and five observations were considered outliers and were removed.

[2] = set-up: method as in PMID 39491249; conditions: in the presence of starch; cited from earlier work

| SMILES | estimated volume of liquid oats resulting in plasma concentration above LLOQ [1] | estimated intake volume of liquid oats needed for plasma concentration above LLOQ [1] [mL] | change of bioaccessibility [2] | average amount of oat flakes needed to reach measurable plasma levels (above LLOQ) ([1]; oat flakes consumed every 4 h) [g] | amount of oat flakes needed to reach measurable plasma levels (above LLOQ) ([1]; oat flakes consumed every 8 h) [g] |
| --- | --- | --- | --- | --- | --- |
| O=C(/C=C/c1ccc(O)cc1)Nc1ccc(O)cc1C(=O)O [AVA 2p] | about 30 mL | 65 | decreased | – | – |
| O=C(/C=C/c1ccc(O)c(O)c1)Nc1ccc(O)cc1C(=O)O [AVA 2c] | about 30 mL | 65 | increased | – | – |
| COc1cc(/C=C/C(=O)Nc2ccc(O)cc2C(=O)O)ccc1O [AVA 2f] | – | – | decreased | 235 | 470 |
